Legend:
[1] = test system: MIA PaCa-2 cells; conditions: read-out: IC50 MIA PaCa-2; human pancreatic carcinoma cell, 72 h, mean ± SE (n = 3)
Protocol: With a range of chromophore analogues in hand, their toxicity to SW620 cells was investigated by WST assays.
Basically, the evaluation was performed using methods previously reported by our group[20],[23]. Cytotoxic activities of compounds against MIA PaCa-2 (American Type Culture Collection), SW620 (European Collection of Authenticated Cell Cultures) were measured by WST-8 assay according to manufacturer’s protocol. Briefly, cells (1 × 10^4 cells/well) in a 96-well plate were cultured in medium (for MIA PaCa-2, D-MEM (Wako, Japan) containing 10% fetal bovine serum (Funakoshi, Japan), 100 units/mL penicillin G and 100 µg/mL streptomycin (Wako, Japan), for SW620, RPMI-1640 (Wako, Japan) containing 10% fetal bovine serum, 100 units/mL penicillin G and 100 µg/mL streptomycin) were cultured at 37 °C for 24 h under 5% CO2 atmosphere. Then, cells were treated with test compounds (final DMSO concentration was 1%) at 37 °C for 72 h under 5% CO2 atmosphere. Then, cells were treated with a solution of Cell Counting Kit-8® (Dojindo, Japan) for 3 h. After that, cell viabilities were determined based on the measurement of absorption at 450 nm of the wells by using TECAN Infinite® M200 microplate reader. The results were expressed as a percentage of the negative control (cells treated with DMSO only), and that value was fixed at 100%.

[2] = test system: HIF-1α-mediated transcription; assay: HRE reporter gene assay in SW620 cells overexpressing HIF-1α; type: cell-based, human; conditions: SW620 transiently overexpressing HIF-1α, 16 h
Source text: Echinomycin is known to inhibit the HIF-1 pathway by inhibiting the binding of HIF-1α to HRE[15],[21],[22]. The ability of 3 to inhibit HIF-1α-mediated transcription was investigated by using an HRE reporter gene assay in SW620 cells transiently overexpressing HIF-1α.
Figure 5 Effect of echinomycin (1), 2 and 3 on HIF-1α-dependent transcription in SW620 cells. SW620 cells were transiently transfected with empty vector pCI-neo-3 × FLAG or HIF-1α expression vector pCI-neo-3 × FLAG-HIF-1α, together with pGL3-5 × HRE-Luc and pGL4.75 [hRluc/CMV]. One day after transfection, echinomycin (1), 2, or 3 was added to the cell culture media and incubated for an additional 16 h. The cells were lysed, and a dual luciferase assay was performed. Firefly luciferase activity was normalized to Renilla luciferase activity, and the data are presented as fold induction relative to the values obtained in cells DMSO-treated cells transfected with empty vector. The error bars represent standard deviations (n = 3). *P < 0.05 and **P < 0.01 compared to DMSO-treated cells transfected with HIF-1α (Student’s test).
Basically, the assay was performed using methods previously reported by our group. […]

[3] = Investigation of maximum tolerated dose (body weight of mice); type: in vivo, mouse; conditions: 14 days
Protocol: (§1) Toxicity Body weight change is an indicator of systemic toxicity. Accordingly, the body weights of mice intraperitoneally treated with different doses (0.04 and 0.4 µg/mouse) of either 1 or 3 were measured (Fig. S1). […] A blood hematological examination (including nineteen parameters) was also conducted on these mice on Day 14 (Fig. S2). There were no significant changes in almost any of the parameters in the mice treated with either 1 or 3 at doses of 0.04 or 0.4 µg/mouse.

[4] = Serum biochemistry / blood examination of treated mice; type: in vivo; conditions: 0.4 µg/mouse i.p., Day 14
Protocol: as §1
Male BALB/c mice (7 weeks old) were purchased from Charles River Laboratories Japan, Inc. Each compound was intraperitoneally injected daily for 14 days. […] Serum was collected by centrifuging blood at 5000 rpm for 10 min. Biochemistry was performed in Oriental Yeast Co., Ltd, Japan.

[5] = test system: SW620 xenograft; assay: SW620 xenograft mouse model; type: in vivo; conditions: i.p. 0.04 and 0.4 µg/mouse daily for 10 days, compared to PBS-injected group
Protocol: Since the metabolic stability and identification of the maximum tolerated dose of 3 were confirmed, the effect of 3 on colon cancer progression in vivo was then investigated (Fig. 7). A xenograft model was generated by injecting a suspension of 2 × 10^6 SW620 cells into the backs of nude mice. The doses of the compounds were 0.04 and 0.4 µg/mouse, which correspond to approximately 1.6 and 16 μg/kg, respectively, according to the results obtained in Fig. S1. A solution of 1, 3, or PBS was injected intraperitoneally into each mouse, and tumor sizes were measured each day. […] Of note is the efficacy of tumor growth inhibition with 3.
Figure 7 In vivo anticancer activity of echinomycin and 3 on the SW620 xenograft mice model. Male BALB/C nude mice were administered by intraperitoneal injection with the vehicle, echinomycin and 3, at dosages of 0.04 and 0.4 µg/mice (n = 10 each group), every day for 10 days (a, b). Average tumor volume (c) was measured. Data are expressed as the mean ± standard error ([…]). *Indicates P < 0.05 by Student's t test. The error bars show the s.d. (n = 10).
Basically, the experiments were performed using methods previously reported. […] The tumor size was calculated by the following formula: Tumor size (mm^2) = (major diameter) × (minor diameter).

[6] = design: method as in PMID 2737217; conditions: doses of 60 and 120 μg/m^2; cited from earlier work

## CS[C@H]1SC[C@H]2C(=O)N(C)[C@@H](C(C)C)C(=O)OC[C@@H](NC(=O)c3cnc4ccccc4n3)C(=O)N[C@@H](C)C(=O)N(C)[C@@H]1C(=O)N(C)[C@@H](C(C)C)C(=O)OC[C@@H](NC(=O)c1cnc3ccccc3n1)C(=O)N[C@@H](C)C(=O)N2C [Compound 1, Echinomycin]
[1]
  IC50: 0.75 ± 0.02 nM
[2]
  HIF-1α-induced HRE reporter activity: inhibited
[3]; i.p. 0.04 and 0.4 µg/mouse, daily
  body weight: did not differ greatly from those of the control
[3]; i.p. daily, body weight and blood examination
  dose up to which no significant toxicity is shown: ≥ 0.04 µg/mouse
[4]
  alanine aminotransferase (ALT): increase
  aspartate aminotransferase (AST): increase
  lactate dehydrogenase (LDH): increase
  total bilirubin (T-BIL): decrease
[5]
  tumor growth: significantly suppressed
[6]
  toxicity at lower doses in human clinical trials: no observed toxicity
